We go through two molecules from ChEMBL document CHEMBL4043188, “Structural characterization of a new steroidal saponin from Agave angustifolia var. Marginata and a preliminary investigation of its in vivo antiulcerogenic activity and in vitro membrane permeability property” (Bioorg Med Chem Lett, 2017).

The assay deals with Mus musculus. Briefly: Antiulcerogenic activity against acidified ethanol induced-gastric lesions in Swiss mouse at 100 mg/kg, po administered 1 hr prior to acidified ethanol challenge measured after 1 hr. Type of assay: functional, organism-based.

The structures appear in SMILES notation. Calls of active or inactive are those of the source. No cut-off for these calls is given here.

In the case of `C[C@@H]1CC[C@@]2(OC1)O[C@H]1C[C@H]3[C@@H]4C[C@H](O)[C@H]5C[C@@H](O[C@@H]6O[C@H](CO)[C@H](O[C@@H]7O[C@H](CO)[C@@H](O)[C@H](O[C@@H]8O[C@H](CO)[C@@H](O[C@@H]9O[C@@H](C)[C@H](O)[C@@H](O)[C@H]9O)[C@H](O)[C@H]8O)[C@H]7O[C@@H]7O[C@H](CO)[C@@H](O)[C@H](O[C@@H]8O[C@H](CO)[C@@H](O)[C@H](O)[C@H]8O)[C@H]7O)[C@H](O)[C@H]6O)CC[C@]5(C)[C@H]4CC(=O)[C@]3(C)[C@H]1[C@@H]2C`, the outcome was Active. As for `CO[C@]1(CC[C@@H](C)CO[C@H]2O[C@@H](CO)[C@H](O)[C@@H](O)[C@@H]2O)O[C@H]2C[C@H]3[C@@H]4CC[C@H]5C[C@@H](O[C@@H]6O[C@H](CO)[C@H](O[C@@H]7O[C@H](CO)[C@@H](O)[C@H](O[C@@H]8O[C@H](CO)[C@@H](O)[C@H](O[C@@H]9O[C@H](CO)[C@@H](O)[C@H](O)[C@H]9O)[C@H]8O)[C@H]7O[C@@H]7OC[C@@H](O[C@@H]8O[C@@H](C)[C@H](O)[C@@H](O)[C@H]8O)[C@H](O)[C@H]7O)[C@H](O)[C@H]6O)CC[C@]5(C)[C@H]4CC[C@]3(C)[C@H]2[C@@H]1C`, the result was Active.
